# Experiments:
# [1] = system: DU145 cells; test: Cell-free caspase-3 activity assay, DU145 cells; format: cell-based, human; details: 10 μM, 72 hours, normalized to 0 hours
# Experimental: To examine whether (+)-EGCG could induce apoptosis only in LNCaP, but not DU-145, cells, both cell lines were treated with 10 μM (+)-EGCG for 0, 24, 48 or 72 hours, followed by performance of cell-free caspase-3 activity assay. Cells were harvested at each sequential time-point and activity was determined by incubating whole cell extracts with caspase-3 substrate and measuring free AMCs (FIG. 20C). All the time-points were normalized to 0 hours. (+)-EGCG activated caspase-3 in LNCaP cells in a time-dependent manner: by 2.5-, 3.5- and 6-fold at 24, 48 and 72 hours, respectively (FIG. 20C). In contrast, little caspase-3 activity was detected in (+)-EGCG-treated in DU145 cells: only ˜2-fold induction at 72 hours (FIG. 20C). In the same experiment, (−)-EGCG at 10 μM was used as a control. […] Therefore, the abilities of (+)-EGCG to activate apoptotic program in these prostate cancer cell lines are correlated well to their abilities to accumulate Bax protein levels to a critical high threshold (compare FIGS. 20C and 20D vs. 20B). Values are means of triplicate independent experiments and error bars denote standard deviations.
# [2] = system: prokaryotic 20S proteasome; test: Dialysis assay for irreversible inhibition, prokaryotic 20S proteasome; format: biochemical, Methanosarcina thermophile
# Experimental: Materials. Highly purified tea polyphenols (−)-EGCG (>95%), (−)-GCG (>98%), (−)-ECG (>98%), (−)-CG (>98%), fetal calf serum, propidium iodide, 3-[4,5-dimethylthiazol-2-yl]-2,5-diphenyltetrazolium bromide (MTT), RNase A, and DMSO were purchased from Sigma (St. Louis, Mo.). (+)-EGCG, benzyl-protected-(+)-EGCG, (+)-GCG, (−)-EGCG-amide, and (+)-EGCG-amide were prepared by enantioselective synthesis (see below). Purified 20S eukaryotic proteasome from rabbit was purchased from BOSTON BIOCHEM (Cambridge, Mass.). Purified 20S prokaryotic proteasome (Methanosarcina thermophile, Recombinant, E. coli) was purchased from CALBIOCHEM (La Jolla, Calif.). Fluorogenic peptide substrates Suc-Leu-Leu-Val-Tyr-AMC (for the proteasomal chymotrypsin-like activity) was obtained from Calbiochem (La Jolla, Calif.). RPMI 1640 medium, Dulbecco's modified Eagle's medium, MEM non-essential amino acids solution, MEM-sodium pyruvate solution, penicillin, and streptomycin were from INVITROGEN (Carlsbad, Calif.). Monoclonal antibody to p27^Kip was purchased from PHARMINGEN (San Diego, Calif.); polyclonal antibodies to IκB-α, Bax and actin, and monoclonal antibody to ubiquitin were from SANTA CRUZ Biotechnology Inc. (Santa Cruz, Calif.).
# Assays for irreversible inhibition. To measure the effect of dialysis on (−)-EGCG-mediated proteasome inhibition, 20S prokaryotic proteasome (2 μg) was incubated with 10 μM (−)-EGCG or the control solvent (H2O) in 50 mM Tris-HCl, pH 7.5 for 1 hour. This was then incubated at 4° C. either without or with dialysis overnight using a 10,000 MWCO Pierce Slide-A-Lyzer Dialysis Cassette (Rockford, Ill.) in a rotating bath of 50 mM Tris-HCl, pH 7.5. The proteasomal chymotrypsin-like activity was then assayed as previously described. As a control, an EGCG solution (without purified 20S proteasome) was dialyzed overnight, followed by measurement of the effects on inhibition of the proteasome activity.
# To investigate the nature of (−)-EGCG-mediated proteasome inhibition, a dialysis experiment was performed. […]
# [3] = system: purified 20S proteasome; details: natural (−)-EGCG; cited from earlier work
Structure (SMILES),caspase-3 induction [1],"inhibition of chymotrypsin-like activity ([2]; 10 μM, 1 h pre-incubation, overnight dialysis)","inhibition of chymotrypsin-like activity ([2]; 10 μM, absence of dialysis)",inhibition of chymotrypsin-like activity ([2]; compound dialyzed overnight before addition to proteasome (EGCG pre)),IC50 [3]
"O=C(OC1Cc2c(O)cc(O)cc2OC1c1cc(O)c(O)c(O)c1)c1cc(O)c(O)c(O)c1 (single isomer, unassigned; (+)) [(+)-EGCG]",~2 fold,–,–,–,–
"O=C(O[C@@H]1Cc2c(O)cc(O)cc2O[C@@H]1c1cc(O)c(O)c(O)c1)c1cc(O)c(O)c(O)c1 [(−)-EGCG, (−)-epigallocatechin-3-gallate, reference compound]",–,81%,85%,no inhibition was observed,0.1 to 0.2 µM

# — US9399631B2, “Polyphenol proteasome inhibitors, synthesis, and methods of use” (UNIVERSITY OF SOUTH FLORIDA, priority 2003, dated 2016)
